Results: BigSolDB 2.1

CCCCN(CCCC)CC(O)c1cc(Cl)cc2c1-c1ccc(Cl)cc1/C2=C/c1ccc(Cl)cc1 (stereo not given)
solubility (mole fraction)
Settings | 278.15 K | 283.15 K | 288.15 K | 293.15 K | 298.15 K | 303.15 K | 308.15 K | 313.15 K | 318.15 K | 323.15 K
in ethanol | 5.32e-05 | 7.11e-05 | 9.63e-05 | 0.000127 | 0.000158 | 0.000213 | 0.000265 | 0.000323 | 0.000401 | 0.000497
in ethyl acetate | 0.00178 | 0.00233 | 0.00315 | 0.00409 | 0.00538 | 0.0069 | 0.009 | 0.0116 | 0.0151 | 0.0201
in methanol | 1.34e-05 | 1.7e-05 | 2.27e-05 | 3.03e-05 | 3.81e-05 | 4.95e-05 | 6.28e-05 | 8.17e-05 | 0.000105 | 0.000136
in methyl acetate | 0.000656 | 0.000903 | 0.00136 | 0.00186 | 0.00262 | 0.00364 | 0.00495 | 0.00669 | 0.00913 | 0.0126
in n-butanol | 0.000137 | 0.000182 | 0.000281 | 0.00038 | 0.000493 | 0.00065 | 0.000851 | 0.00115 | 0.00147 | 0.00187
in n-butyl acetate | 0.00423 | 0.00531 | 0.00672 | 0.00864 | 0.0108 | 0.0137 | 0.0175 | 0.0223 | 0.0285 | 0.0359
in n-heptanol | 0.000337 | 0.000437 | 0.000586 | 0.000781 | 0.0011 | 0.00149 | 0.00193 | 0.00245 | 0.00339 | 0.0045
in n-hexanol | 0.00021 | 0.000315 | 0.000477 | 0.000604 | 0.000886 | 0.00119 | 0.00171 | 0.00214 | 0.00289 | 0.00387
in n-octanol | 0.000352 | 0.000474 | 0.00073 | 0.000945 | 0.00125 | 0.00172 | 0.00221 | 0.00298 | 0.00385 | 0.00516
in n-pentanol | 0.000215 | 0.00028 | 0.000423 | 0.000555 | 0.000745 | 0.000968 | 0.0013 | 0.0017 | 0.0022 | 0.00288
in n-pentyl acetate | 0.00474 | 0.00654 | 0.00846 | 0.011 | 0.0137 | 0.0168 | 0.0211 | 0.0252 | 0.0326 | 0.0406
in n-propanol | 8.62e-05 | 0.000107 | 0.000145 | 0.00021 | 0.000279 | 0.000388 | 0.000502 | 0.000696 | 0.000967 | 0.00131
in n-propyl acetate | 0.00281 | 0.00365 | 0.00485 | 0.00653 | 0.00838 | 0.0109 | 0.0139 | 0.018 | 0.0231 | 0.0304
